Source: publication PMC8051587 (ACS chemical biology, 2020)
Several values for one entry are separate records, joined by “and”; a condition that tells them apart may be missing. Identical values can stand only once.

How the values were obtained:
[1] = biological target: T1, full-length A/Udorn/72 M2 WT (Influenza A virus, UniProt P0DOF5); conditions: 100 μM, mean ± SEM at 2 min of drug perfusion; ref [3]; cited from earlier work
A/WSN/33 = conditions: plaque reduction assay; cited from earlier work
[2] = biological target: T1, full-length A/Udorn/72 M2 WT
M2 WT = conditions: read-out: apparent Ki; block of M2 WT; cited from earlier work

T1 sequence (P0DOF5 whole entry, the tested form may be a part): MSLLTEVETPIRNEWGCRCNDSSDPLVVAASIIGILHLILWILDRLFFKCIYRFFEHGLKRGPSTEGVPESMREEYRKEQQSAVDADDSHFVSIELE

Row | SMILES | Percent Block (%) [1] | EC50 (A/WSN/33) [µM] | Kd ([2]; calculated from the ratio koff/kon) [µM] | koff ([2]; inferred from extent of block and perfusion-limited block rate) [s⁻¹] | Ki (M2 WT) [µM]
1 | c1csc(-c2cc(CNC34CC5CC(CC(C5)C3)C4)on2)c1 [Compound 6] | 11% and 11 ± 1^g % | ~0.1 | > 100 | > 1 | 
2 | NC12CC3CC(CC(C3)C1)C2 [Amantadine, amantadine] |  |  |  |  | 0.3
